The values below come from PubChem BioAssay AID812 (SRMLSC, 2007).

Structures are written as SMILES. Calls of active or inactive are those of the source. No rule for the calls is given here.

The experiment relates to Saccharomyces cerevisiae lifespan extension, no nicotinamide. The experiment is described as follows: yeast lifespan extension without nicotinamide, confirmation, yeast lifespan extension project, S. cerevisiae (AID 812).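 Also: growth read as optical density after 42 hours of incubation at 30C.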
The term EC50 denotes the concentration giving half of the maximal effect. Turning to `CCOC(=O)c1c(NC(=O)C2C3C=CC(C3)C2C(=O)O)sc2c1CCC(CC)C2` (centres undefined), the EC50 is > 40 µM (inactive).
Next, `O=C1c2ccccc2C(=O)N1Cc1nc2ccccc2c(=O)n1-c1ccc(Br)cn1`: > 40 µM (inactive).
For `CCN1CCCC1CNC(=O)COc1cc(=O)n(C)c2ccccc12` (centres undefined), the EC50 was > 40 µM (inactive).
As to `C=CCn1c(C)cc(C(=O)COc2ncnc3sccc23)c1C`, the EC50 is > 40 µM (inactive).
To `CCCCCCC1C(C#N)=C(N)OC2=C1C(=O)CC(C)(C)C2` (centres undefined) belongs > 40 µM (inactive); to `O=C1OC2(CCCCC2)OC(=O)C1=CNc1nc2ccccc2s1`, > 40 µM (inactive).
Next, `CCOc1ccc(/C=C/C(=O)c2c(O)c3ccccc3oc2=O)cc1`: > 40 µM (inactive).
Next, `COc1ccc(CN2CCN(C(=O)COc3cccc(C)c3)CC2)c(OC)c1`: > 40 µM (inactive).
Consider `COc1ccc(C(C)NC(=O)c2ccccc2)cc1` (centres undefined), for which the EC50 is > 40 µM (inactive).
Next, `NC(=S)N/N=C/c1coc2cc(Cl)ccc2c1=O`: > 40 µM (inactive).
As for `CN1CCC2(CC1)C(C#N)=C(N)NC(S)=C2C#N`, the EC50 was > 40 µM (inactive).
To `Cc1ccc(S(=O)(=O)N[C@@H](Cc2ccccc2)C(=O)CCl)cc1` belongs > 40 µM (inactive).
To `CC(C)Cc1nn2c(=O)cc(O)nc2s1` belongs > 40 µM (inactive); to `C=C(C(=O)c1ccccc1)C(CC(=O)c1ccccc1)c1ccccc1` (centres undefined), > 40 µM (inactive); to `O=C(Nc1nccs1)c1ccc2c(=O)n3c(nc2c1)CCCCC3`, > 40 µM (inactive).
To `CC1=NN(c2ccc(C(F)(F)F)cn2)C(=O)C1` belongs > 40 µM (inactive); to `CCOC(=O)c1c(C)oc2c1c(C(c1cccnc1)N1CCCCC1)c(O)c1ccccc12` (centres undefined), > 40 µM (inactive); to `Cc1cc(C)cc(CC2CC(=O)N(c3ccc(Cl)cn3)C2=O)c1` (centres undefined), > 40 µM (inactive).
Consider `C/C(=N\NC(=O)c1cccnc1)c1c(O)cc(C)oc1=O`, for which the EC50 was > 40 µM (inactive).
Regarding `O=C1c2ccccc2NC(c2cnc3ccccc3n2)N1O` (centres undefined), the EC50 is > 40 µM (inactive).
Take `CCCC(=O)Nc1ccc(C(=O)NNC(=S)NC(=O)c2cccs2)cc1`: the EC50 was > 40 µM (inactive).
To `CCOC(=O)CC1=NN(c2ccccc2)C(=O)/C1=C\c1ccc(OC)cc1OC` belongs > 40 µM (inactive); to `CSc1ccc(S(=O)(=O)NCc2ccc(Cl)cc2Cl)cc1`, > 40 µM (inactive); to `O=C(c1ccccc1)c1nc2ccccc2[nH]c1=O`, > 40 µM (inactive).
For the molecule `CCCC(=Nc1ccccc1)C1=C(O)C(C(=O)OC)C(C)(C)CC1=O` (centres undefined), the EC50 was > 40 µM (inactive).
To `COC(=O)CCS(=O)(=O)c1nc(-c2ccccc2)cc(C(F)(F)F)n1` belongs > 40 µM (inactive); to `CN1C(=O)/C(=C/c2cccn2-c2ccc3ccccc3c2)C(=O)NC1=S`, > 40 µM (inactive); to `O=C1C=CCC(/C=C/c2ccccc2)O1` (centres undefined), > 40 µM (inactive).
Next, `O=c1cc(-c2c(F)c(F)c(F)c(F)c2F)oc2c(F)c(F)c(F)c(F)c12`: > 40 µM (inactive).
In the case of `C=C(C)CN(CC)C(=O)COc1ccc(S(=O)(=O)Nc2ccc(OC)cc2)cc1`, the EC50 was > 40 µM (inactive).
Take `O=C(CCl)N1c2ccccc2OCC1c1ccccc1` (centres undefined): the EC50 is > 40 µM (inactive).
To `COc1cc(C(C[N+](=O)[O-])c2c(-c3ccccc3)cc3ccccn23)cc(OC)c1OC` (centres undefined) belongs > 40 µM (inactive); to `Cc1cc(C)c(S(=O)(=O)c2ccccc2)c(OC(=O)c2ccc(Cl)cc2Cl)n1`, > 40 µM (inactive); to `CCCNC(=O)CCC(NS(=O)(=O)c1ccc(C)cc1)C(=O)NCCC` (centres undefined), > 40 µM (inactive).
In the case of `Cc1ccccc1OC(=O)n1c(=S)oc2cc(Cl)ccc21`, the EC50 was > 40 µM (inactive).
`CCC1C/C(=C\c2cccnc2)C(=O)/C(=C/c2cccnc2)C1` (centres undefined): the EC50 was > 40 µM (inactive).
For the molecule `CN1CCN(CC(=O)Nc2ccc(Cl)cc2Cl)CC1`, the EC50 was > 40 µM (inactive).
Next, `CCSc1nnc(NC(=O)CSc2nc(C)cc(C)n2)s1`: > 40 µM (inactive); `CCn1ccc(C(=O)Nc2ccc(S(=O)(=O)Nc3ccccc3OC)cc2)n1`: > 40 µM (inactive).
`CC(=NCCc1c(C)[nH]c2ccc(C)cc12)C1=C(O)CC(c2ccccc2)CC1=O` (centres undefined): the EC50 is > 40 µM (inactive).
Take `COc1ccccc1CN(Cc1nc2ccccc2c(=O)[nH]1)C(=O)Nc1cccc(C)c1`: the EC50 is > 40 µM (inactive).
Next, `O=C1CC(c2ccccc2)CC(O)=C1C=NCCN1CCN(C(=O)Cc2ccccc2)CC1` (centres undefined): > 40 µM (inactive); `O=S(=O)(Nc1cccc2c1CCCC2)c1ccc(Cl)cc1`: > 40 µM (inactive).
For the molecule `Cc1n[nH]c(=O)n1-c1cccc(C(F)(F)F)c1`, the EC50 was > 40 µM (inactive).
Consider `CCc1nc(SCC(=O)c2ccc3c(c2)OCCO3)c2ccccc2n1`, for which the EC50 was 19.1 µM.
As for `O=C1C=CC2C(c3ccc4c(c3)OCO4)CC1N2Cc1ccccc1` (centres undefined), the EC50 was > 40 µM (inactive).
Next, `O=C(c1ccccc1)C(CN1CCCC1)c1ccccc1` (centres undefined): > 40 µM (inactive); `COC(=O)CSc1ncccc1-c1nc2ccccc2[nH]1`: > 40 µM (inactive); `COC(=O)C1=C(C(=O)OC)C(c2ccccc2O)c2sc(=O)[nH]c2S1` (centres undefined): > 40 µM (inactive).
Next, `Nc1cccc2c1C(=O)N(C(=O)c1ccc(Cl)c(S(=O)(=O)N3CCCCCC3)c1)C2=O`: > 40 µM (inactive); `O=C(CCC1CCCC1)c1c(O)c2ccccc2oc1=O`: > 40 µM (inactive); `N#Cc1cc(C(=O)c2cc(F)ccc2O)cn(-c2nccs2)c1=O`: > 40 µM (inactive).
With `N#Cc1ccc(-c2ccc(OCC(=O)NCCc3ccccc3)cc2)cc1`, the EC50 was > 40 µM (inactive).
Take `CCc1oc2ccccc2c1C(=O)CCN1CCCCC1`: the EC50 was > 40 µM (inactive).
To `Cc1ccc(C)c(N2CCN(S(=O)(=O)c3c(C)noc3/C=C/N(C)C)CC2)c1` belongs > 40 µM (inactive); to `COc1cc(/C=C/C(=O)c2c(O)cc(C)oc2=O)cc(OC)c1O`, > 40 µM (inactive); to `O=c1cc(O)c2c(=O)n(-c3ccccc3)c3c(c2o1)CCCCC3`, > 40 µM (inactive).
To `Oc1ccc2ccccc2c1/C=N/c1nccs1` belongs > 40 µM (inactive); to `COc1cccc(C2CC3C(=O)C=CC2N3Cc2ccccc2)c1` (centres undefined), > 40 µM (inactive).
In the case of `CCSc1nnc(NC(=O)C2(C)Cc3ccccc3C(=O)O2)s1` (centres undefined), the EC50 is > 40 µM (inactive).
Consider `CCCCCn1c(=O)c(C(=O)NCc2ccccn2)c(O)c2ccccc21`, for which the EC50 is > 40 µM (inactive).
Next, `CC(=O)Nc1c(O)nc(SCc2ccccc2C#N)[nH]c1=O`: > 40 µM (inactive).
Take `O=C(/C=C(\O)c1ccc(Cl)cc1)C(=O)NNC(=O)C(O)(c1ccccc1)c1ccccc1`: the EC50 is > 40 µM (inactive).
To `COc1ccccc1C(=O)Oc1ccc2c(c1)O/C(=C\c1ccncc1)C2=O` belongs > 40 µM (inactive).
